Where “and” joins values, the source holds several entries; their conditions need not be identical. Equal entries are not always repeated.
Test: molar heat capacity at constant pressure
Details: 101.33 kPa

O=C([O][Sb]([c]1ccccc1)([c]1ccccc1)([c]1ccccc1)[c]1ccccc1)c1ccccc1 [tetraphenylantimony benzoate]
Details | molar heat capacity at constant pressure
175 K, Crystal, Small (less than 1 g) adiabatic calorimetry | 350 J/K/mol
179.52 K, Crystal, Small (less than 1 g) adiabatic calorimetry | 354.2 J/K/mol
180 K, Crystal, Small (less than 1 g) adiabatic calorimetry | 355.4 J/K/mol
182.77 K, Crystal, Small (less than 1 g) adiabatic calorimetry | 359.3 J/K/mol
187 K, Crystal, Small (less than 1 g) adiabatic calorimetry | 368 J/K/mol
190 K, Crystal, Small (less than 1 g) adiabatic calorimetry | 372 J/K/mol
193.46 K, Crystal, Small (less than 1 g) adiabatic calorimetry | 377.4 J/K/mol
196.73 K, Crystal, Small (less than 1 g) adiabatic calorimetry | 382.6 J/K/mol
200 K, Crystal, Small (less than 1 g) adiabatic calorimetry | 387 J/K/mol and 387.6 J/K/mol
203.22 K, Crystal, Small (less than 1 g) adiabatic calorimetry | 393.1 J/K/mol
206.89 K, Crystal, Small (less than 1 g) adiabatic calorimetry | 398.7 J/K/mol
210 K, Crystal, Small (less than 1 g) adiabatic calorimetry | 402 J/K/mol
212.74 K, Crystal, Small (less than 1 g) adiabatic calorimetry | 408.9 J/K/mol
216.41 K, Crystal, Small (less than 1 g) adiabatic calorimetry | 416 J/K/mol
218 K, Crystal, Small (less than 1 g) adiabatic calorimetry | 417 J/K/mol
220 K, Crystal, Small (less than 1 g) adiabatic calorimetry | 420.9 J/K/mol
221.7 K, Crystal, Small (less than 1 g) adiabatic calorimetry | 424.2 J/K/mol
226.59 K, Crystal, Small (less than 1 g) adiabatic calorimetry | 431.9 J/K/mol
230.26 K, Crystal, Small (less than 1 g) adiabatic calorimetry | 438 J/K/mol
233.93 K, Crystal, Small (less than 1 g) adiabatic calorimetry | 444.7 J/K/mol
237.6 K, Crystal, Small (less than 1 g) adiabatic calorimetry | 451.8 J/K/mol
240 K, Crystal, Small (less than 1 g) adiabatic calorimetry | 455.1 J/K/mol
241.26 K, Crystal, Small (less than 1 g) adiabatic calorimetry | 457.5 J/K/mol
244.92 K, Crystal, Small (less than 1 g) adiabatic calorimetry | 464.4 J/K/mol
248.56 K, Crystal, Small (less than 1 g) adiabatic calorimetry | 469.4 J/K/mol
252.2 K, Crystal, Small (less than 1 g) adiabatic calorimetry | 476.9 J/K/mol
255.84 K, Crystal, Small (less than 1 g) adiabatic calorimetry | 483.2 J/K/mol
259.46 K, Crystal, Small (less than 1 g) adiabatic calorimetry | 489.4 J/K/mol
260 K, Crystal, Small (less than 1 g) adiabatic calorimetry | 491.6 J/K/mol
260.21 K, Crystal, Small (less than 1 g) adiabatic calorimetry | 492.1 J/K/mol
263.38 K, Crystal, Small (less than 1 g) adiabatic calorimetry | 496.3 J/K/mol
266.99 K, Crystal, Small (less than 1 g) adiabatic calorimetry | 503.4 J/K/mol
270.59 K, Crystal, Small (less than 1 g) adiabatic calorimetry | 511.1 J/K/mol
273.15 K, Crystal, Small (less than 1 g) adiabatic calorimetry | 514.4 J/K/mol
274.19 K, Crystal, Small (less than 1 g) adiabatic calorimetry | 516.9 J/K/mol
277.77 K, Crystal, Small (less than 1 g) adiabatic calorimetry | 523.1 J/K/mol
280 K, Crystal, Small (less than 1 g) adiabatic calorimetry | 527.1 J/K/mol
281.34 K, Crystal, Small (less than 1 g) adiabatic calorimetry | 529.8 J/K/mol
284.91 K, Crystal, Small (less than 1 g) adiabatic calorimetry | 536.8 J/K/mol
288.45 K, Crystal, Small (less than 1 g) adiabatic calorimetry | 544.3 J/K/mol
291.98 K, Crystal, Small (less than 1 g) adiabatic calorimetry | 551.8 J/K/mol
295.51 K, Crystal, Small (less than 1 g) adiabatic calorimetry | 558.6 J/K/mol
298.15 K, Crystal, Small (less than 1 g) adiabatic calorimetry | 564.4 J/K/mol
299.02 K, Crystal, Small (less than 1 g) adiabatic calorimetry | 565.4 J/K/mol
300 K, Crystal, Small (less than 1 g) adiabatic calorimetry | 568.4 J/K/mol
302.51 K, Crystal, Small (less than 1 g) adiabatic calorimetry | 572.4 J/K/mol
305.98 K, Crystal, Small (less than 1 g) adiabatic calorimetry | 579.5 J/K/mol
309.1 K, Crystal, Small (less than 1 g) adiabatic calorimetry | 585.3 J/K/mol
312.86 K, Crystal, Small (less than 1 g) adiabatic calorimetry | 594.4 J/K/mol
316.25 K, Crystal, Small (less than 1 g) adiabatic calorimetry | 601.1 J/K/mol
319.65 K, Crystal, Small (less than 1 g) adiabatic calorimetry | 610.9 J/K/mol
320 K, Crystal, Small (less than 1 g) adiabatic calorimetry | 611.4 J/K/mol
321.5 K, Crystal, DSC | 615 J/K/mol
323.03 K, Crystal, Small (less than 1 g) adiabatic calorimetry | 617.6 J/K/mol
324.5 K, Crystal, DSC | 621 J/K/mol
326.38 K, Crystal, Small (less than 1 g) adiabatic calorimetry | 625.6 J/K/mol
327.5 K, Crystal, DSC | 627 J/K/mol
329.73 K, Crystal, Small (less than 1 g) adiabatic calorimetry | 632 J/K/mol
330.5 K, Crystal, DSC | 634 J/K/mol
333.07 K, Crystal, Small (less than 1 g) adiabatic calorimetry | 638.8 J/K/mol
333.5 K, Crystal, DSC | 639 J/K/mol
336.5 K, Crystal, DSC | 645 J/K/mol
337.11 K, Crystal, Small (less than 1 g) adiabatic calorimetry | 646.4 J/K/mol
339.5 K, Crystal, DSC | 649 J/K/mol
340 K, Crystal, Small (less than 1 g) adiabatic calorimetry | 650 J/K/mol
342.5 K, Crystal, DSC | 656 J/K/mol
345.5 K, Crystal, DSC | 660 J/K/mol
348.5 K, Crystal, DSC | 666 J/K/mol
351.5 K, Crystal, DSC | 671 J/K/mol
354.5 K, Crystal, DSC | 678 J/K/mol
357.5 K, Crystal, DSC | 683 J/K/mol
360 K, Crystal, Small (less than 1 g) adiabatic calorimetry | 688 J/K/mol
360.5 K, Crystal, DSC | 689 J/K/mol
368.5 K, Crystal, DSC | 709 J/K/mol
377.2 K, Crystal, DSC | 731 J/K/mol
380 K, Crystal, Small (less than 1 g) adiabatic calorimetry | 736 J/K/mol
387.3 K, Crystal, DSC | 755 J/K/mol
397.5 K, Crystal, DSC | 780 J/K/mol
400 K, Crystal, Small (less than 1 g) adiabatic calorimetry | 788 J/K/mol
402.5 K, Crystal, DSC | 793 J/K/mol
405.5 K, Crystal, DSC | 800 J/K/mol
408.5 K, Crystal, DSC | 806 J/K/mol
411.5 K, Crystal, DSC | 830 J/K/mol
420 K, Crystal, Small (less than 1 g) adiabatic calorimetry | 800 J/K/mol
437.5 K, Crystal, Small (less than 1 g) adiabatic calorimetry | 873 J/K/mol
437.5 K, Liquid, DSC | 973 J/K/mol
440 K, Liquid, DSC | 973 J/K/mol
445.5 K, Liquid, DSC | 989 J/K/mol
447.5 K, Liquid, DSC | 981 J/K/mol
450.5 K, Liquid, DSC | 973 J/K/mol
453.5 K, Liquid, DSC | 973 J/K/mol
456.5 K, Liquid, DSC | 973 J/K/mol
459.5 K, Liquid, DSC | 973 J/K/mol
460 K, Liquid, DSC | 973 J/K/mol
462.5 K, Liquid, DSC | 973 J/K/mol
465.5 K, Liquid, DSC | 973 J/K/mol
468.5 K, Liquid, DSC | 973 J/K/mol
471.5 K, Liquid, DSC | 973 J/K/mol
474.5 K, Liquid, DSC | 973 J/K/mol
477.5 K, Liquid, DSC | 973 J/K/mol
480 K, Liquid, DSC | 973 J/K/mol
480.5 K, Liquid, DSC | 973 J/K/mol

— the NIST ThermoML archive (doi:10.1016/j.jct.2018.11.011)
